Assay results as given in patent US9872861B2, “Methods of treatment using selective Bcl-2 inhibitors” (AbbVie Inc., priority 2010, dated 2018).
Where two headings read alike, the source gives them in different places. Marks after values point to notes of the source that are not given here.

Experiments:
FL5.12-Bcl-2 cells = assay: Cellular efficacy in FL5.12 cells dependent on Bcl-2; format: cell-based, murine; settings: Mus musculus, 3% FBS
RS4;11 cells = assay: Cellular efficacy in Bcl-2 dependent tumor cell line RS4;11; format: cell-based, human; settings: Homo sapiens, RS4-11; 10% HS
FL5.12-Bcl-XL cells = assay: Cellular efficacy in FL5.12 cells dependent on Bcl-XL; format: cell-based, murine; settings: Mus musculus, 3% FBS
Bcl-w = target: T1, Bcl-w (Homo sapiens, UniProt Q92843); assay: TR FRET competitive binding affinity, Bcl-w; settings: read-out: Target Affinity TR FRET, Bcl-w
T1 sequence (Q92843 1-193): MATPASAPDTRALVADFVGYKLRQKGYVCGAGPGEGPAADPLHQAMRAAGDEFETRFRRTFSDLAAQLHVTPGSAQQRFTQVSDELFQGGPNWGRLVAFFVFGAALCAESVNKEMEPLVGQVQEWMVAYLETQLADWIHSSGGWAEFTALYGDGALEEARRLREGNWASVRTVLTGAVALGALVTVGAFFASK
Method: (§1) A comparison of the binding affinity for each of the compounds was performed to determine target affinity, as measured by Time-Resolved Fluorescence Resonance Energy Transfer (TR FRET).

[1] = tested on: peripheral blood immune cells and platelets; assay: Peripheral blood lymphocytes and platelets in (NZB×NZW)F1 mice, Cell Dyn hematology analyzer; format: in vivo
H146 cells = assay: Cellular efficacy in Bcl-XL dependent tumor cell line H146; format: cell-based; settings: Homo sapiens, NCI-H146; 10% HS
Mcl-1 = Mcl-1 (Homo sapiens, UniProt Q07820); assay: TR FRET competitive binding affinity, Mcl-1; settings: read-out: Target Affinity TR FRET, Mcl-1
Method: as §1

[2] = tested on: peripheral blood immune cells; assay: Peripheral blood lymphocytes in C57BL/6 mice, Cell Dyn hematology analyzer; format: in vivo; settings: for inhibition in vivo at 100 mg/kg: Mus musculus, Lymphocyte
Method: The effect of the Bcl-2 selective/Bcl-XL sparing compounds on peripheral blood immune cells was also evaluated in C57BL/6 mice. Mice were treated four days with individual compounds (100 mg/kg, orally every day) and cell numbers were measured with a Cell Dyn hematology analyzer.

Bcl-XL = Bcl-XL (Homo sapiens, UniProt Q07817); assay: TR FRET competitive binding affinity, Bcl-XL; settings: read-out: Target Affinity TR FRET, Bcl-XL
Method: as §1

Bcl-2 = Bcl-2 (Homo sapiens, UniProt P10415); assay: TR FRET competitive binding affinity, Bcl-2; settings: read-out: Target Affinity TR FRET, Bcl-2
Method: as §1

[3] = tested on: spontaneous (NZB×NZW)F1 murine model of lupus; assay: Spontaneous (NZB×NZW)F1 murine model of lupus: proteinuria, survival, lymphopenia; format: in vivo, (NZB×NZW)F1 mice
Source text: (See Liu, K. and C. Mohan, What do mouse models teach us about human SLE? Clin Immunol, 2006. 119(2): p. 123-30) This model has been well-characterized with respect to the patho-physiological changes analogous to those of human SLE. […] Renal histopathological changes include severe glomerulonephritis, mesangial and peripheral proliferative changes, capillary membrane thickening, tubular atrophy, and infiltration of lymphocytes and monocytes/macrophages as in the majority of human SLE patients. These changes result in disruption of kidney function as evidenced by severe proteinuria (PU) greater than 300 mg/dL as measured by albumin sticks, followed by mortality as measured by survival. […] (See Gelfand, M. C. and A. D. Steinberg, Therapeutic studies in NZB-W mice. II. Relative efficacy of azathioprine, cyclophosphamide and methylprednisolone. Arthritis Rheum, 1972. 15(3): p. 247-52; and Ramos, M. A., et al., Modulation of autoantibody production by mycophenolate mofetil: effects on the development of SLE in (NZB×NZW)F1 mice. Nephrol Dial Transplant, 2003. 18(5): p. 878-83)
(NZB×NZW)F1 females were purchased from The Jackson Laboratory (Bar Harbor, Me., USA) and maintained in a conventional animal housing facility throughout the experiment. […] Proteinuria (PU) and survival were monitored weekly, followed by biweekly measurement of lymphocyte and platelet counts, and anti-ds DNA production. PK parameters were also measured throughout the study. Impact on IgG deposition and renal pathology were assessed at the conclusion of the study. Severe PU was defined by two consecutive weekly measurements of PU 300 mg/dl using Albustix test strips (VWR). When mice became moribund, they were sacrificed according to Institutional Animal Care and Use Committee protocols. PU and survival data were presented as Kaplan-Meyer survival curves using Graphpad Prism software and group differences were considered significant at the level of p<0.05. Histologic scores were analyzed using ANOVA analysis. Anti-ds DNA were analyzed using one-way ANOVA analysis and Tukey post-test.

[4] = (NZB×NZW)F1 mice, four days, orally every day
[5] = 24 h, 1 oral dose of 100 mg/kg, read-out: Day 1 % Reduction vs. Vehicle
[6] = 96 h, 4 oral doses of 100 mg/kg, read-out: Day 4 % Reduction vs. Vehicle
[7] = 30 and 100 mg/kg intraperitoneal every day, four days

Mcl-1, sequence (Q07820 whole entry): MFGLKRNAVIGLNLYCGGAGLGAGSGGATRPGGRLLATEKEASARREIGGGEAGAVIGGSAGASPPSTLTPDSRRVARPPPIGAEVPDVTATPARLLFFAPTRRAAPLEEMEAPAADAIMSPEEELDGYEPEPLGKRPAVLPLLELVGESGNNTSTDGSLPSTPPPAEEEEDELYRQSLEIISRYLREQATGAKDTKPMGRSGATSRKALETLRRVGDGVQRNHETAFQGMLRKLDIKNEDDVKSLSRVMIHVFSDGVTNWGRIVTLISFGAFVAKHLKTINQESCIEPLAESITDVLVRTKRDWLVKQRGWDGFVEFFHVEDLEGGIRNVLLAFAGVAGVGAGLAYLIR
Bcl-2, sequence (P10415 whole entry): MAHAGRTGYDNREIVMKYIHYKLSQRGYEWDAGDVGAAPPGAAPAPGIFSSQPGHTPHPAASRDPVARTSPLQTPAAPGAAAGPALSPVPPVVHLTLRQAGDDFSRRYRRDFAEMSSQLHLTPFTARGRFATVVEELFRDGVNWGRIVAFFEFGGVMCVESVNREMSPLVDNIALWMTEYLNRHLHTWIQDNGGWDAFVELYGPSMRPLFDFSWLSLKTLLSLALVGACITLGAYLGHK
Bcl-XL, sequence (Q07817 whole entry): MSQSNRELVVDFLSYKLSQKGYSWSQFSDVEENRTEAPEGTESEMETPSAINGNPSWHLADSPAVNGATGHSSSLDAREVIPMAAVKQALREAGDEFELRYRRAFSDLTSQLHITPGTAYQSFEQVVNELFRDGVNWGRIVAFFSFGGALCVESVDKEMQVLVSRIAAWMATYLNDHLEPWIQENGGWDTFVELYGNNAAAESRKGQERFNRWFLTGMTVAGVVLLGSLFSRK

Row | SMILES | EC50 (FL5.12-Bcl-2 cells) [nM] | EC50 (RS4;11 cells) [nM] | EC50 (FL5.12-Bcl-XL cells) [nM] | Ki (Bcl-w) [nM] | EC50 (H146 cells) [nM] | Ki (Mcl-1) [nM] | Day 1 Lymphocytes ([2]; 1 oral dose of 100 mg/kg) | Day 4 lymphocytes ([2]; 4 oral doses of 100 mg/kg) | inhibition in vivo at 100 mg/kg [2, 5] [%] | inhibition in vivo at 100 mg/kg [2, 6] [%] | Ki (Bcl-XL) [nM] | Ki (Bcl-2) [nM] | further results
1 | CC1(C)CCC(c2ccc(Cl)cc2)=C(CN2CCN(c3ccc(C(=O)NS(=O)(=O)c4ccc(N[C@H](CCN5CCOCC5)CSc5ccccc5)c(S(=O)(=O)C(F)(F)F)c4)cc3)CC2)C1 [Compound 2, N-(4-(4-((2-(4-chlorophenyl)-5,5-dimethyl-1-cyclohex-1-en-1-yl)methyl)piperazin-1-yl)benzoyl)-4-(((1R)-3-(morpholin-4-yl)-1-((phenylsulfanyl)methyl)propyl)amino)-3-((trifluoromethyl)sulfonyl)benzenesulfonamide, reference compound] | 20 | 110 | 13 | 7 | 75 | – | – | – | – | – | – | – | lymphocytes in peripheral blood [1, 4]: decrease in lymphocytes; platelet counts [1, 4]: significant decrease in platelet counts
2 | CC1(C)CCC(CN2CCN(c3ccc(C(=O)NS(=O)(=O)c4cnc(OCC5(F)CCN(C6COC6)CC5)c(Cl)c4)c(Oc4cnc5[nH]ccc5c4)c3)CC2)=C(c2ccc(Cl)cc2)C1 [Compound 13, N-[(5-chloro-6-{[4-fluoro-1-(oxetan-3-yl)piperidin-4-yl]methoxy}pyridin-3-yl)sulfonyl]-4-(4-{[2-(4-chlorophenyl)-4,4-dimethylcyclohex-1-en-1-yl]methyl}piperazin-1-yl)-2-(1H-pyrrolo[2,3-b]pyridin-5-yloxy)benzamide] | – | 7 | – | 167 | 3160 | > 440 | 2.32 ×10^6 | 2.61 ×10^6 | 64 | 70 | 9 | – | –
3 | CC1(C)CCC(CN2CCN(c3ccc(C(=O)NS(=O)(=O)c4ccc(NCC5CCOCC5)c([N+](=O)[O-])c4)c(Oc4ccc5[nH]ccc5c4)c3)CC2)=C(c2ccc(Cl)cc2)C1 [Compound 3, 4-(4-{[2-(4-chlorophenyl)-4,4-dimethylcyclohex-1-en-1-yl]methyl}piperazin-1-yl)-2-(1H-indol-5-yloxy)-N-({3-nitro-4-[(tetrahydro-2H-pyran-4-ylmethyl)amino]phenyl}sulfonyl)benzamide] | 12 | 41 | 1060 | – | > 5000 | 111 | 2.3 ×10^6 | 1.34 ×10^6 | 63 | 79 | 151 | 0.119 | lymphocyte reduction ([1]; 30 mg/kg intraperitoneal every day, four days): 47%; CD4+ T cells, CD8+ T cells and CD19+ B cells ([1]; 100 mg/kg and 300 mg/kg): statistically significant decrease; lymphocyte reduction ([1]; 100 mg/kg intraperitoneal every day, four days): 66%; lymphocytes vs phosal vehicle control [1, 7]: dose dependent decrease in lymphocytes; platelet counts [1, 7]: without significantly affecting platelet counts
4 | CC1(C)CCC(CN2CCN(c3ccc(C(=O)NS(=O)(=O)c4cnc(OC[C@H]5CC[C@H](O)CC5)c(Cl)c4)c(Oc4cccc5[nH]ncc45)c3)CC2)=C(c2ccc(Cl)cc2)C1 [Compound 6, Trans-N-({5-chloro-6-[(4-hydroxycyclohexyl)methoxy]pyridin-3-yl}sulfonyl)-4-(4-{[2-(4-chlorophenyl)-4,4-dimethylcyclohex-1-en-1-yl]methyl}piperazin-1-yl)-2-(1H-indazol-4-yloxy)benzamide] | – | 23 | – | – | 3660 | > 224 | 1.91 ×10^6 | 0.98 ×10^6 | 69 | 85 | 27 | < 0.01 | –
5 | CC1(C)CCC(CN2CCN(c3ccc(C(=O)NS(=O)(=O)c4ccc(NC[C@H]5CC[C@](C)(O)CC5)c([N+](=O)[O-])c4)c(Oc4cnc5[nH]ccc5c4)c3)CC2)=C(c2ccc(Cl)cc2)C1 [Compound 9, 4-(4-{[2-(4-chlorophenyl)-4,4-dimethylcyclohex-1-en-1-yl]methyl}piperazin-1-yl)-N-[(4-{[(trans-4-hydroxy-4-methylcyclohexyl)methyl]amino}-3-nitrophenyl)sulfonyl]-2-(1H-pyrrolo[2,3-b]pyridin-5-yloxy)benzamide] | – | 2.5 | – | 227 | 3760 | > 440 | 0.75 ×10^6 | 0.88 ×10^6 | 88 | 86 | 16 | – | –
6 | CC1(C)CCC(CN2CCN(c3ccc(C(=O)NS(=O)(=O)c4ccc(N[C@H]5CC[C@H](N6CCOCC6)CC5)c([N+](=O)[O-])c4)c(Oc4cnc(N)c(Cl)c4)c3)CC2)=C(c2ccc(Cl)cc2)C1 [Compound 17, Trans-2-[(6-amino-5-chloropyridin-3-yl)oxy]-4-(4-{[2-(4-chlorophenyl)-4,4-dimethylcyclohex-1-en-1-yl]methyl}piperazin-1-yl)-N-({4-[(4-morpholin-4-ylcyclohexyl)amino]-3-nitrophenyl}sulfonyl)benzamide] | 4 | 17 | 65 | 357 | 3240 | > 440 | 1.84 ×10^6 | 1.30 ×10^6 | 77 | 83 | 12 | < 0.01 | % Mice with PU < 300 mg/dL ([3]; Week 39, 1 mg/kg daily oral): 58%; % Survival ([3]; Week 39, 1 mg/kg daily oral): 67%; % Mice with PU < 300 mg/dL ([3]; Week 39, 3 mg/kg daily oral): 67%; % Survival ([3]; Week 39, 3 mg/kg daily oral): 92%; % Mice with PU < 300 mg/dL ([3]; Week 39, 10 mg/kg daily oral): 71%; % Survival ([3]; Week 39, 10 mg/kg daily oral): 93%; % Mice with PU < 300 mg/dL ([3]; Week 39, 30 mg/kg daily oral): 86%; % Survival ([3]; Week 39, 30 mg/kg daily oral): 100%; % Mice with PU < 300 mg/dL ([3]; Week 39, 100 mg/kg daily oral): 100* %; % Survival ([3]; Week 39, 100 mg/kg daily oral): 100%
7 | CC1(C)CCC(CN2CCN(c3ccc(C(=O)NS(=O)(=O)c4ccc(NC[C@H]5CC[C@@](C)(O)CC5)c([N+](=O)[O-])c4)c(Oc4cnc5[nH]ccc5c4)c3)CC2)=C(c2ccc(Cl)cc2)C1 [Compound 8, 4-(4-{[2-(4-chlorophenyl)-4,4-dimethylcyclohex-1-en-1-yl]methyl}piperazin-1-yl)-N-[(4-{[(cis-4-hydroxy-4-methylcyclohexyl)methyl]amino}-3-nitrophenyl)sulfonyl]-2-(1H-pyrrolo[2,3-b]pyridin-5-yloxy)benzamide] | – | 4 | – | 405 | 3340 | > 440 | 0.92 ×10^6 | 1.02 ×10^6 | 85 | 84 | 16 | – | –
